Laboratory results reported in patent publication US8575156B2, “Cyclic inhibitors of 11β-hydroxysteroid dehydrogenase 1” (Vitae Pharmaceuticals, Inc., priority 2007, dated 2013).
Read-outs that look alike come from different tables or passages of the source.

Target: 11β-HSD1 (Homo sapiens, UniProt P28845)
Assay: biochemical
Conditions: for IC50: IC50 Range, Biological Test Example 1, microsomes from CHO cells overexpressing human 11β-HSD1
[1] = read-out: Average % inhibition at 100 nM, Biological Test Example 1, 100 nM compound
[2] = read-out: Average % inhibition at 100 nM, Biological Test Example 1, 100 nM

Chain of 11β-HSD1 (P28845 whole entry): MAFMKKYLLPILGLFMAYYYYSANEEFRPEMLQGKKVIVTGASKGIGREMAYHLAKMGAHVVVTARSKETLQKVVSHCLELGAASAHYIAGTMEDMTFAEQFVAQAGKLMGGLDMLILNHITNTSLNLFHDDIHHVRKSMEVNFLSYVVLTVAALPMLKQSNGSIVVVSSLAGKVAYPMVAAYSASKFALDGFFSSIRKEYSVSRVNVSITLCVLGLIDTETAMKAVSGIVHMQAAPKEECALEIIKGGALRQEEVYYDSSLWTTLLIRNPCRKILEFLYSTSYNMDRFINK

IC50 [nM]	inhibition at 0.1 µM [1] [%]	inhibition at 0.1 µM [2] [%]	inhibition at 0.1111 µM (read-out: Average % inhibition at 111.1 nM, Biological Test Example 1, 111.1 nM) [%]	SMILES	inhibition at 0.1 µM (read-out: Average % inhibition at 100 nM) [%]
< 100	90.7	–	–	CCC[C@]1(c2ccccc2)CCN([C@@H](C)c2ccc(-c3ccc(F)cc3F)cc2)C(=O)O1 [EXAMPLE 226, (R)-3-((S)-1-(2′,4′-difluorobiphenyl-4-yl)ethyl)-6-phenyl-6-propyl-1,3-oxazinan-2-one]	–
< 100	57	–	–	C=CC[C@]1(c2ccc(F)cc2)CCN([C@@H](C)c2ccc(N3CCN(C)CC3)cc2)C(=O)O1 [EXAMPLE 231, (R)-6-allyl-6-(4-fluorophenyl)-3-((S)-1-(4-(4-methylpiperazin-1-yl)phenyl)ethyl)-1,3-oxazinan-2-one]	–
< 100	96.9	–	–	C[C@@H](c1ccc(-c2ccc(F)cc2)cc1)N1CC[C@](CCCO)(c2cccs2)OC1=O [EXAMPLE 232, (R)-3-((S)-1-(4′-fluorobiphenyl-4-yl)ethyl)-6-(3-hydroxypropyl)-6-(thiophen-2-yl)-1,3-oxazinan-2-one]	–
< 100	96.7	–	–	CC[C@@H](c1ccc(Br)cc1)N1CC[C@](CCCO)(c2ccc(F)cc2)OC1=O [EXAMPLE 241, (R)-3-((S)-1-(4-bromophenyl)propyl)-6-(4-fluorophenyl)-6-(3-hydroxypropyl)-1,3-oxazinan-2-one]	–
< 100	38.9	–	–	C=CC[C@]1(c2ccc(F)cc2)CCN([C@@H](C)c2ccc(C(=O)N3CCCCC3)cc2)C(=O)O1 [EXAMPLE 243, (R)-6-allyl-6-(4-fluorophenyl)-3-((S)-1-(4-(piperidine-1-carbonyl)phenyl)ethyl)-1,3-oxazinan-2-one]	–
< 100	96.7	–	–	C[C@@H](c1ccc(-c2ccc(F)cc2)cc1)N1CC[C@](CCC(C)(C)O)(c2ccccc2)OC1=O [EXAMPLE 248, (R)-3-((S)-1-(4′-fluorobiphenyl-4-yl)ethyl)-6-(3-hydroxy-3-methylbutyl)-6-phenyl-1,3-oxazinan-2-one]	–
< 100	96.3	–	–	CC(=O)c1ccc(-c2ccc([C@H](C)N3CC[C@](CCCO)(c4ccccc4)OC3=O)cc2)s1 [EXAMPLE 249, (R)-3-((S)-1-(4-(5-acetylthiophen-2-yl)phenyl)ethyl)-6-(3-hydroxypropyl)-6-phenyl-1,3-oxazinan-2-one]	–
< 100	97.1	–	–	C[C@@H](c1ccc(-c2ccc(F)cc2F)cc1)N1CC[C@](CCC(N)=O)(c2ccccc2)OC1=O [EXAMPLE 250, 3-((R)-3-((S)-1-(2′,4′-difluorobiphenyl-4-yl)ethyl)-2-oxo-6-phenyl-1,3-oxazinan-6-yl)propanamide]	–
< 100	90.9	–	–	CC(N)c1ccc(-c2ccc([C@H](C)N3CC[C@](CCCO)(c4ccccc4)OC3=O)cc2)s1 (stereo partly drawn) [EXAMPLE 251, (6R)-3-((1S)-1-(4-(5-(1-aminoethyl)thiophen-2-yl)phenyl)ethyl)-6-(3-hydroxypropyl)-6-phenyl-1,3-oxazinan-2-one]	–
< 100	99	–	–	CC[C@@H](c1ccc(-c2ccc(F)cc2)cc1)N1CC[C@](CCCO)(c2ccc(F)cc2)OC1=O [EXAMPLE 252, (R)-3-((S)-1-(4′-fluorobiphenyl-4-yl)propyl)-6-(4-fluorophenyl)-6-(3-hydroxypropyl)-1,3-oxazinan-2-one]	–
< 100	93.3	–	–	CC[C@@H](c1ccc(-c2ccc(F)cc2F)cc1)N1CC[C@](CCCO)(c2ccccc2)OC1=O [EXAMPLE 253, (R)-3-((S)-1-(2′,4′-difluorobiphenyl-4-yl)propyl)-6-(3-hydroxypropyl)-6-phenyl-1,3-oxazinan-2-one]	–
< 100	96	–	–	CC(O)c1ccc(-c2ccc([C@H](C)N3CC[C@](CCCO)(c4ccccc4)OC3=O)cc2)s1 (stereo partly drawn) [EXAMPLE 254, (6R)-3-((1S)-1-(4-(5-(1-hydroxyethyl)thiophen-2-yl)phenyl)ethyl)-6-(3-hydroxypropyl)-6-phenyl-1,3-oxazinan-2-one]	–
< 100	43.1	–	–	C[C@@H](c1ccc(N2CCCCS2(=O)=O)cc1)N1CC[C@](CCO)(c2ccc(F)cc2)OC1=O [EXAMPLE 259, (S)-6-(4-fluorophenyl)-6-(2-hydroxyethyl)-3-((S)-1-(4-(1,1-dioxo-hexahydro-1,2-thiazin-2-yl)phenyl)ethyl)-1,3-oxazinan-2-one]	–
< 100	94.1	–	–	C[C@@H](c1ccc(-c2ccc(F)cc2F)cc1)N1CC[C@](CCC(C)(C)O)(c2ccccc2)OC1=O [EXAMPLE 260, (R)-3-((S)-1-(2′,4′-difluorobiphenyl-4-yl)ethyl)-6-(3-hydroxy-3-methylbutyl)-6-phenyl-1,3-oxazinan-2-one]	–
< 100	96.2	–	–	CC[C@@H](c1ccc(-c2ccc(F)cc2F)cc1)N1CC[C@](CCCO)(c2ccc(F)cc2)OC1=O [EXAMPLE 261, (R)-3-((S)-1-(2′,4′-difluorobiphenyl-4-yl)propyl)-6-(4-fluorophenyl)-6-(3-hydroxypropyl)-1,3-oxazinan-2-one]	–
< 100	56.8	–	–	CNCC(O)C[C@]1(c2ccc(F)cc2)CCN([C@@H](C)c2ccc(-c3ccc(F)cc3F)cc2)C(=O)O1 (stereo partly drawn) [EXAMPLE 265, (6S)-3-((S)-1-(2′,4′-difluorobiphenyl-4-yl)ethyl)-6-(4-fluorophenyl)-6-(2-hydroxy-3-(methylamino)propyl)-1,3-oxazinan-2-one]	–
< 100	96.1	–	–	C[C@@H](c1ccc(-c2ccc(F)cc2)cc1)N1CC[C@](CCCNS(C)(=O)=O)(c2ccccc2)OC1=O [EXAMPLE 270, N-(3-((R)-3-((S)-1-(4′-fluorobiphenyl-4-yl)ethyl)-2-oxo-6-phenyl-1,3-oxazinan-6-yl)propyl)methanesulfonamide]	–
< 100	93.8	–	–	C[C@@H](c1ccc(-c2ccc(F)cc2F)cc1)N1CC[C@](CCCOC(N)=O)(c2ccc(F)cc2)OC1=O [EXAMPLE 272, 3-((R)-3-((S)-1-(2′,4′-difluorobiphenyl-4-yl)ethyl)-6-(4-fluorophenyl)-2-oxo-1,3-oxazinan-6-yl)propyl carbamate]	–
< 100	97.7	–	–	C[C@@H](c1ccccc1F)N1CC[C@](CCCO)(c2ccc(F)cc2)OC1=O [EXAMPLE 284, (R)-6-(4-fluorophenyl)-3-((S)-1-(2-fluorophenyl)ethyl)-6-(3-hydroxypropyl)-1,3-oxazinan-2-one]	–
< 100	96.2	–	–	C[C@@H](c1ccc(F)cc1)N1CC[C@](CCCO)(c2ccc(F)cc2)OC1=O [EXAMPLE 285, (R)-6-(4-fluorophenyl)-3-((S)-1-(4-fluorophenyl)ethyl)-6-(3-hydroxypropyl)-1,3-oxazinan-2-one]	–
< 100	89.8	–	–	C[C@@H](c1ccc(Cl)cc1)N1CC[C@](CCC(N)=O)(c2ccccc2)OC1=O [EXAMPLE 287, 3-((R)-3-((S)-1-(4-chlorophenyl)ethyl)-2-oxo-6-phenyl-1,3-oxazinan-6-yl)propanamide]	–
< 100	72.4	–	–	C[C@@H](c1cccc(F)c1)N1CC[C@](CCC(N)=O)(c2ccc(F)cc2)OC1=O [EXAMPLE 288, 3-((R)-6-(4-fluorophenyl)-3-((S)-1-(3-fluorophenyl)ethyl)-2-oxo-1,3-oxazinan-6-yl)propanamide]	–
< 100	94	–	–	C[C@@H](c1cccc(C(F)(F)F)c1)N1CC[C@](CCCO)(c2ccc(F)cc2)OC1=O [EXAMPLE 293, (R)-6-(4-fluorophenyl)-6-(3-hydroxypropyl)-3-((S)-1-(3-(trifluoromethyl)phenyl)ethyl)-1,3-oxazinan-2-one]	–
< 100	97.2	–	–	C[C@@H](c1ccc(C(F)(F)F)cc1)N1CC[C@](CCCO)(c2ccc(F)cc2)OC1=O [EXAMPLE 294, (R)-6-(4-fluorophenyl)-6-(3-hydroxypropyl)-3-((S)-1-(4-(trifluoromethyl)phenyl)ethyl)-1,3-oxazinan-2-one]	–
< 100	71.7	–	–	C[C@@H](c1cccc(C(F)(F)F)c1)N1CC[C@](CCC(N)=O)(c2ccc(F)cc2)OC1=O [EXAMPLE 299, 3-((R)-6-(4-fluorophenyl)-2-oxo-3-((S)-1-(3-(trifluoromethyl)phenyl)ethyl)-1,3-oxazinan-6-yl)propanamide]	–
< 100	86.7	–	–	COc1ccc([C@H](C)N2CC[C@](CCNS(C)(=O)=O)(c3ccc(F)cc3)OC2=O)cc1 [EXAMPLE 301, N-(2-((S)-6-(4-fluorophenyl)-3-((S)-1-(4-methoxyphenyl)ethyl)-2-oxo-1,3-oxazinan-6-yl)ethyl)methanesulfonamide]	–
> 1000	–	25	8.6	C[C@@H](c1ccc(S(C)(=O)=O)cc1)N1CC[C@](CCO)(c2ccc(F)cc2)OC1=O [EXAMPLE 308, (S)-6-(4-fluorophenyl)-6-(2-hydroxyethyl)-3-((S)-1-(4-(methylsulfonyl)phenyl)ethyl)-1,3-oxazinan-2-one]	–
< 100	–	77.5	–	C[C@@H](c1ccc(-c2ccc(F)cc2)cc1)N1CC[C@](CCCOP(=O)(O)O)(c2ccccc2)OC1=O [EXAMPLE 310, 3-((R)-3-((S)-1-(4′-fluorobiphenyl-4-yl)ethyl)-2-oxo-6-phenyl-1,3-oxazinan-6-yl)propyl dihydrogen phosphate]	–
< 100	–	96.7	–	Cc1cc(-c2ccc([C@H](C)N3CC[C@](CCCO)(c4ccc(F)cc4)OC3=O)cc2)ccn1 [EXAMPLE 311, (R)-6-(4-fluorophenyl)-6-(3-hydroxypropyl)-3-((S)-1-(4-(2-methylpyridin-4-yl)phenyl)ethyl)-1,3-oxazinan-2-one]	–

SMILES	IC50 [nM]	inhibition at 0.1 µM [1] [%]	inhibition at 0.1 µM [2] [%]	inhibition at 0.1111 µM (read-out: Average % inhibition at 111.1 nM, Biological Test Example 1, 111.1 nM) [%]	inhibition at 0.1 µM (read-out: Average % inhibition at 100 nM) [%]
C[C@@H](c1ccc(-c2ccc(F)cc2F)cc1)N1CC[C@](CCS(C)(=O)=O)(c2ccc(F)cc2)OC1=O [EXAMPLE 229, (S)-3-((S)-1-(2′,4′-difluorobiphenyl-4-yl)ethyl)-6-(4-fluorophenyl)-6-(2-(methylsulfonyl)ethyl)-1,3-oxazinan-2-one]	< 100	–	–	–	81.6
